Experimental data taken from ChEMBL document CHEMBL5523739, “NN1213 - A Potent, Long-Acting, and Selective Analog of Human Amylin” (J Med Chem, 2024).
≈ marks a conversion by molar mass, not a printed value. Calls of active or inactive are those of the source. No cut-off for these calls is given here.

What was measured:
[1] = target: T1, Amylin receptor AMY3; CALCR/RAMP3 (Homo sapiens, UniProt O60896+P30988); experiment: Agonist activity at human AMY3R complex of CTR/RAMP3 expressed in Baby hamster kidney cells incubated for 3 hrs followed by medium replacement without compound measured after 30 mins by luciferase reporter assay; type: functional, cell-based, Baby hamster kidney cell
T1 sequence (P30988 whole entry): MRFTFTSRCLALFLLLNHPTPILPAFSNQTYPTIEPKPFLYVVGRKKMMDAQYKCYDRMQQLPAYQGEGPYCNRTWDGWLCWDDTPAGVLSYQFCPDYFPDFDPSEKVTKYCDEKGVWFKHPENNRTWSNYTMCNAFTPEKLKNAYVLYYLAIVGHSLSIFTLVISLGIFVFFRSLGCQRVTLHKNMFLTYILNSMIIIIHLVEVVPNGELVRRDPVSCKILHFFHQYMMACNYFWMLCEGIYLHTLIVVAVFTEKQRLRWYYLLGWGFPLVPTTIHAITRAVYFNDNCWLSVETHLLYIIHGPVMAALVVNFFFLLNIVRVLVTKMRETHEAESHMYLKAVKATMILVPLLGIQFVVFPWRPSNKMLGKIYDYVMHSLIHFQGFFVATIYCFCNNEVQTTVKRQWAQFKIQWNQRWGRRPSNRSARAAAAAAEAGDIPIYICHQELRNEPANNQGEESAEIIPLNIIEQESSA
T1 sequence (O60896 whole entry): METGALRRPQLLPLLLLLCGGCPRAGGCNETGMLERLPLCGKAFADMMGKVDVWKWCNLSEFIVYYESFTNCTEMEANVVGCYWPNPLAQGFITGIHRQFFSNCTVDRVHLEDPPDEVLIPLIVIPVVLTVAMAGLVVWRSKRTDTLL

Calcitonin receptor [2] = target: T2, Calcitonin receptor (Homo sapiens, UniProt P30988); experiment: Agonist activity at human CTR expressed in Baby hamster kidney cells incubated for 3 hrs followed by medium replacement without compound measured after 30 mins by luciferase reporter assay; type: functional, cell-based, Baby hamster kidney cell
T2 sequence (P30988 whole entry): T1 sequence (P30988 whole entry)

[3] = target: T3, Amylin receptor AMY3; CALCR/RAMP3 (Rattus norvegicus, UniProt P32214+Q9JJ73); experiment: Agonist activity at rat AMY3R complex of CTR/RAMP3 expressed in Baby hamster kidney cells incubated for 3 hrs by cAMP assay; type: functional, cell-based, Baby hamster kidney cell
T3 sequence (P32214 whole entry): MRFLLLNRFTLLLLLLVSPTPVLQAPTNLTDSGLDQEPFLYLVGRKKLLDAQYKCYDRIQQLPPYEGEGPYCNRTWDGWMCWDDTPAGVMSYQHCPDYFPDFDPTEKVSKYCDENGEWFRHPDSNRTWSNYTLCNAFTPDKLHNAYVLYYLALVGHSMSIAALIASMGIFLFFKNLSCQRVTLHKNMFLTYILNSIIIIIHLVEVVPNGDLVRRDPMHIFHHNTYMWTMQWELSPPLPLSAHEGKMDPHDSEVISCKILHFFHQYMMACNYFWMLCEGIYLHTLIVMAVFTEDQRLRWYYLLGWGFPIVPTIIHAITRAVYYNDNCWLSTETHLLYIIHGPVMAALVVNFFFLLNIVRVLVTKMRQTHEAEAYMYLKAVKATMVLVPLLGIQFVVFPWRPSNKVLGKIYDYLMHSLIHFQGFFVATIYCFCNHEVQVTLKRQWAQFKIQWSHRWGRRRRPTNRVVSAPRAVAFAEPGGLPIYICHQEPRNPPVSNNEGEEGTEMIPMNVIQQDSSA
T3 sequence (Q9JJ73 whole entry): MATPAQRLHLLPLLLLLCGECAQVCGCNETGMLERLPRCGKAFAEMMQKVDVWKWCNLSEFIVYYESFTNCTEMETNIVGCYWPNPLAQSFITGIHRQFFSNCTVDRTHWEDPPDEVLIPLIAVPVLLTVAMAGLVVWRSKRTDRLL

Calcitonin receptor [4] = target: T4, Calcitonin receptor (Rattus norvegicus, UniProt P32214); experiment: Agonist activity at rat CTR expressed in Baby hamster kidney cells incubated for 3 hrs by cAMP assay; type: functional, cell-based, Baby hamster kidney cell
T4 sequence (P32214 whole entry): T3 sequence (P32214 whole entry)

[5] = Solubility of compound at pH 4 incubated overnight by UPLC analysis; type: physicochemical; conditions: buffer
[6] = Solubility of compound at pH 5 incubated overnight by UPLC analysis; type: physicochemical; conditions: buffer
[7] = Solubility of compound at pH 6 incubated overnight by UPLC analysis; type: physicochemical; conditions: buffer
[8] = Solubility of compound at pH 7 incubated overnight by UPLC analysis; type: physicochemical; conditions: buffer
[9] = Solubility of compound at pH 7.5 incubated overnight by UPLC analysis; type: physicochemical; conditions: buffer
[10] = Solubility of compound at pH 8 incubated overnight by UPLC analysis; type: physicochemical; conditions: buffer
[11] = Stability against amyloid fibril formation at pH 7.5 assessed as lag time at 1 uM measured after 45 hrs by ThT assay; type: physicochemical; conditions: pH 7.5, 45 h
[12] = Stability against amyloid fibril formation at pH 7.5 assessed as compound recovery at 1 uM measured after 45 hrs by ThT assay; type: physicochemical; conditions: pH 7.5, 45 h
Calcitonin receptor [13] = target: T2, Calcitonin receptor; experiment: Agonist activity at human CTR transduced in human HeLa cells by cAMP assay; type: functional, cell-based
[14] = target: Amylin receptor AMY1, CALCR/RAMP1 (Homo sapiens, UniProt O60894+P30988); experiment: Agonist activity at human AMY1R complex of CTR/RAMP1 transduced in human HeLa cells by cAMP assay; type: functional, cell-based
[15] = target: Amylin receptor AMY2; CALCR/RAMP2 (Homo sapiens, UniProt O60895+P30988); experiment: Agonist activity at human AMY2R complex of CTR/RAMP2 transduced in human HeLa cells by cAMP assay; type: functional, cell-based
[16] = target: Calcitonin-gene-related peptide receptor, CALCRL/RAMP1 (Homo sapiens, UniProt O60894+Q16602); experiment: Agonist activity at human CGRPR complex of CRLR/RAMP1 transduced in human HeLa cells by cAMP assay; type: functional, cell-based
[17] = Terminal half life in rat at 2.5 nmol/kg, sc; type: ADME; conditions: in vivo, read-out: beta t1/2 (converted)
[18] = Terminal half life in Beagle dog at 6 nmol/kg, iv; type: ADME, Canis lupus familiaris; conditions: in vivo, read-out: beta t1/2 (converted)
Rattus norvegicus [19] = experiment: Appetite suppressing activity in rat assessed as reduction in food intake at 3 nmol/kg, sc measured after 24 hrs relative to control; type: functional; set-up: scale not given: the % may be the effect or the level left
Rattus norvegicus [20] = experiment: Appetite suppressing activity in rat assessed as reduction in food intake at 3 nmol/kg, sc measured after 48 hrs relative to control; type: functional; set-up: scale not given: the % may be the effect or the level left
Rattus norvegicus [21] = experiment: Appetite suppressing activity in rat assessed as reduction in food intake at 100 nmol/kg, sc measured for 48 hrs relative to control; type: functional; set-up: scale not given: the % may be the effect or the level left
Canis familiaris = experiment: Appetite suppressing activity in dog assessed as reduction in food intake administered subcutaneously measured for 48 hrs; type: functional, organism-based; conditions: Canis lupus familiaris, dose 3-300 nmol/kg, route sc
[22] = Toxicity in dog assessed as sign of discomfort at 3 to 300 nmol/kg, sc; set-up: species or system Canis lupus familiaris; conditions: in vivo, dose 3-300 nmol/kg
Rattus norvegicus [23] = experiment: Appetite suppressing activity in HFD-fed DIO rat model assessed as reduction in body weight at 0.7 to 22 nmol/kg, sc qd measured after 15 days; type: functional, organism-based; conditions: dose 0.7-22 nmol/kg, time 15.0 day
Rattus norvegicus [24] = experiment: Appetite suppressing activity in HFD-fed DIO rat model assessed as body weight lost at 0.7 nmol/kg, sc qd measured after 21 days; type: functional; conditions: time 21 day
Rattus norvegicus [25] = experiment: Appetite suppressing activity in HFD-fed DIO rat model assessed as body weight lost at 22 nmol/kg, sc qd measured after 21 days; type: functional; conditions: time 21 day

Sequence of Calcitonin-gene-related peptide receptor, CALCRL/RAMP1 (O60894 whole entry): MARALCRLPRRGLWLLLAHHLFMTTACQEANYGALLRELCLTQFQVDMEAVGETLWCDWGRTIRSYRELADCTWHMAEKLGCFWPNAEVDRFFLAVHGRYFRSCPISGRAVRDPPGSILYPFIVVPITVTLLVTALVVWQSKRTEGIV
Sequence of Calcitonin-gene-related peptide receptor, CALCRL/RAMP1 (Q16602 whole entry): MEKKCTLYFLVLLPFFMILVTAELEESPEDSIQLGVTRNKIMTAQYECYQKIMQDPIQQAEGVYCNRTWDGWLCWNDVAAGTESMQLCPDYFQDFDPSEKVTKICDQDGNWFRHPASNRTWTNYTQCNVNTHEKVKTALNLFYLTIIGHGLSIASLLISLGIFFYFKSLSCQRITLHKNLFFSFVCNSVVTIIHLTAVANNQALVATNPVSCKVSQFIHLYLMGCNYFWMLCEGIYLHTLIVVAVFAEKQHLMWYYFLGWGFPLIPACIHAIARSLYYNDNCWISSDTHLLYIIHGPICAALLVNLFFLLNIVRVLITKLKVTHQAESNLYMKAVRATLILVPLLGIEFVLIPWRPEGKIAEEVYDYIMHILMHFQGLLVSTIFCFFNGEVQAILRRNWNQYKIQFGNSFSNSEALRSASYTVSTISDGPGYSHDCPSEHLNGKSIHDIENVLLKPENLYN
Sequence of Amylin receptor AMY2; CALCR/RAMP2 (O60895 whole entry, one chain of several): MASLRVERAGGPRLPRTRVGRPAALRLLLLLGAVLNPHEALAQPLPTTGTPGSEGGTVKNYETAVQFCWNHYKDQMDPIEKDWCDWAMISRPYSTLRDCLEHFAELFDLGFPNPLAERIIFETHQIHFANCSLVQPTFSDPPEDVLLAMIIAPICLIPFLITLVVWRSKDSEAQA
Sequence of Amylin receptor AMY1, CALCR/RAMP1 (O60894 whole entry, one chain of several): as the sequence (O60894 whole entry) above

## CC[C@H](C)[C@H](NC(=O)[C@H](C)NC(=O)CNC(=O)[C@H](Cc1ccccc1)NC(=O)[C@H](CC(N)=O)NC(=O)[C@@H]1CCCN1C(=O)[C@H](CO)NC(=O)[C@H](CO)NC(=O)[C@H](Cc1c[nH]cn1)NC(=O)[C@H](CCCNC(=N)N)NC(=O)[C@H](CC(C)C)NC(=O)[C@H](Cc1ccccc1)NC(=O)[C@H](CC(=O)O)NC(=O)[C@H](C)NC(=O)[C@H](CC(C)C)NC(=O)[C@H](CCCNC(=N)N)NC(=O)[C@H](CCC(N)=O)NC(=O)[C@@H](NC(=O)[C@H](C)NC(=O)[C@@H]1CSSC[C@H](NC(=O)[C@@H](N)CCCCN)C(=O)N[C@@H](CC(N)=O)C(=O)N[C@@H]([C@@H](C)O)C(=O)N[C@@H](C)C(=O)N[C@@H]([C@@H](C)O)C(=O)N1)[C@@H](C)O)C(=O)N1CCC[C@H]1C(=O)N[C@@H](CO)C(=O)N[C@@H](CO)C(=O)N[C@H](C(=O)N[C@@H](CC(N)=O)C(=O)N[C@H](C(=O)NCC(=O)N[C@@H](CO)C(=O)N[C@@H](CCCNC(=N)N)C(=O)N[C@H](C(=O)N[C@@H](Cc1ccc(O)cc1)C(N)=O)[C@@H](C)O)C(C)C)[C@@H](C)O
[1]
  EC50: 0.177 nM
Calcitonin receptor [2]
  EC50: 5.21 nM
[3]
  EC50: 0.262 nM
Calcitonin receptor [4]
  EC50: 102 nM
[5]
  solubility: ≥ 200 µM
[6]
  solubility: ≥ 200 µM
[7]
  solubility: ≥ 200 µM
[8]
  solubility: 155 µM (≈ 615 µg/mL)
[9]
  solubility: 106 µM (≈ 421 µg/mL)
[10]
  solubility: 110 µM (≈ 437 µg/mL)
[11]
  Time: 42 h
[12]
  Drug recovery: 96%
Calcitonin receptor [13]
  EC50: 1.74 nM
[14]
  EC50: 0.0575 nM
[15]
  EC50: 0.182 nM
[16]
  EC50: 269 nM
[17]
  half-life: ~24 h
[18]
  half-life: ~76 h
Rattus norvegicus [19]
  Activity: 25%
Rattus norvegicus [20]
  Activity: 15%
Rattus norvegicus [21]
  Activity: 70%
Canis familiaris
  Activity: Dose-Dependent Effect
[22]
  Activity: Non-Toxic
Rattus norvegicus [23]
  Activity: inactive
Rattus norvegicus [24]
  Activity: 32 g
Rattus norvegicus [25]
  Activity: 69.6 g
